Assay results: patent US20040192638A1, “Method and composition for prolonging the residence time of drugs in the gut” (priority 2001, published 2004)
“Also recorded” adds a separate entry of the source.

Key:
rat small intestine [1] = experiment: Sustained Spike Potential (SSP) myoelectric bioassay, infusion into the duodenum via cannula in instrumented uninfected rats; assay type: in vivo; details: for stimulation / induction of SSP above background levels (in words): infused into intestinal lumen, concentration not stated at the place; for SSP frequency compared with saline controls / background (in words): 0.2 ml infused into intestinal lumen, FIG. 3
Description: Outbred male rats (Sprague Dawley, Harlan Sprague Dawley, Inc., Indianapolis, Ind.) were housed singly and maintained on a 12-hour light/12-hour dark cycle. All rats used in the bioassay procedure were uninfected with tapeworms. The design and surgical implantation procedure of the intestinal extracellular bipolar electrodes have been described previously (Dwinell et al., 1994, 1997). Briefly, four bipolar electrodes were surgically sutured to the intestinal serosa of each rat according to the methods of Dwinell et at. (1994), which is incorporated herein by reference. Three electrodes (J1-J3) were implanted on the jejunum at 10 cm intervals, with the first electrode (J1) placed 10 cm caudal from the ligament of Treitz and proceeding caudally with J2 and J3. A fourth electrode (designated “I” because it was placed within the ileum) was placed 20 cm orad from the ileo-caecal junction. In addition, a cannula was implanted with one end residing in the lumen of the mid-duodenum, whereas the other end was exteriorized to allow infusion of test fractions.
All compounds tested were infused into the duodenum via the cannula. Compounds were delivered in 0.2 ml aliquots followed immediately by a 0.2 ml saline cannula rinse. These volumes were used in order to prevent muscle contraction due to stretch from larger bolus volumes. To observe the induction of SSP, intestinal myoelectric activity was recorded for 90 minutes following infusion.
Consistent with the protocol of Dwinell et al. (1994), intestinal myoelectric activity was not recorded for the first five days after implantation surgery. Control recordings were taken after this period to assure the return of normal myoelectric patterns of the MMC following the cessation of post-surgical ileus. Periodic “control” recordings were made with saline on the intervening days between the tests with tapeworm-conditioned medium (TCM) or its fractions.
In vivo intestinal myoelectric activity was recorded with a polygraph chart recorder (Grass Instruments, Quincy, Mass.). The myoelectric signal from each electrode was simultaneously recorded on paper and by a personal computer with an I/O board and WINDAQ software (Dataq Instruments, Akron, Ohio) connected to the polygraph recorder by an analog-to-digital converter (Dataq Instruments).
Food was removed on each recording day at 0800 hour to prevent animal feeding and the subsequent disruption of the interdigestive myoelectric pattern. Recording occurred between 1300 and 1900 hours. All recording sessions for each animal were at least 1.5 hour in duration, and all animals were recorded while awake and unrestrained. Vehicle (0.9% saline or in some cases RPMI 1640) was used as control for test substances.
Five days after electrode and cannula implantation surgery, three consecutive baseline 90-minute recordings were made on separate days in each rat to confirm the presence of normal intestinal myoelectric activity at the end of the immediate post surgical period.
Secreted compounds were infused via the duodenal cannula and the frequency of the sustained spike potential (SSP) electrical patterns was determined from recordings of myoelectric activity. […] The third and final phase of the MMC (marked by arrowheads) is a period of >90% spiking and represents a series of contractions migrating orad to caudad along the small intestine. The caudad migration of phase III between electrode sites propels lumenal content toward the caecum.
Cyclic nucleotides were degraded to their 5′-monophosphate derivatives by incubation with bovine brain phosphodiesterase (PDE; cat. # P-0134, Sigma Co., St. Louis, Mo.).

[2] = tested on: Male Ross x Ross broiler chicks; experiment: Effect of cGMP on feed conversion ratio in broiler chicks; assay type: in vivo; details: for Feed Conversion Ration FCR / Feed Intake / Gain: Experiment 1; for Feed Intake / Gain: per pen of 5 chicks, 10 mg cGMP/kg of feed and/or 100 mg succinate/kg of feed, terminated after week 2
Method: cGMP for use in this Example was manufactured by ICN Biomedicals (Irvine, Calif.), and purchased from Fisher Scientific (Hampton, N.H.). Male Ross x Ross broiler chicks were obtained from Sunnyside Hatchery (Beaver Dam, Wis.). Standard commercial chick mash was used as a base ration. cGMP with and without succinate was dissolved in water and sprayed as a mist onto the basal diet during continuous mixing. […] Diets were prepared 1 to 3 days prior to the start of the experiment and stored in individual plastic buckets (1 bucket/replicate). Chicks were randomly placed into treatment groups with 5 birds per replicate. Chicks were weighed as a group, so each pen of 5 animals represents n=1. Treatments and replicates were randomly assigned (via a random number generator) to pens. Chicks were fed ad libitum and checked daily. Feed intake and pen weight were recorded weekly. Feed conversion ratios were calculated as grams of feed consumed/grams of weight gain in the animals. […] The results are shown in Table 2 for two sets of experiments. Experiment 1 was to run for 3 weeks, but was accidentally disrupted during the third week.

rat small intestine [3] = experiment: SSP myoelectric recording after intragastric (per os) or intraperitoneal cGMP; assay type: in vivo; details: data not shown
Method: For intragastric infusion, rats (n=4) were lightly sedated with Halothane in order to insert a gastric tube per os and infused with 0.3 ml of 10 mM cGMP in saline directly into the lumen of the stomach. Thirty minutes of control myoelectric recording were always performed before infusion of any substance. Five to seven minutes after infusion, the rats were reconnected to the recorder. […] This procedure was repeated with the same rats on a different day with 0.3 ml 100 mM cGMP (equal to 100× the minimal dose required to increase SSP frequency by infusion into the lumen of the small intestine) and on a separate day with 0.3 ml saline as a vehicle control. Post-oral dosing myoelectric recordings were 90 minutes in duration.
Neither cGMP (1.0 ml of 100 mM) injected intraperitoneally nor cGMP (0.3 ml of 10 mM and 100 mM) introduced into the stomach per os initiated the SSP pattern in the small intestine (data not shown).

[4] = Effect of cGMP on drug uptake: atenolol in blood after intraduodenal infusion; assay type: in vivo, rat; details: atenolol 1 mg/kg intraduodenal; 0.2 ml of 10 mM cGMP 15 minutes prior to and 15 minutes after atenolol; same rats, FIG. 4
Method: Thus, a model drug, atenolol, was introduced directly into the lumen of the rat's small intestine, and the concentration of atenolol was measured in the blood over time. The blood values and concentration kinetics of the model drug were compared after infusion into the intestine alone or when infused with cGMP. Atenolol was quantified using conventional liquid chromatography/mass spectrometry methods.
Outbred male rats (Sprague Dawley, Harlan Sprague Dawley, Inc., Indianapolis, Ind.) were housed singly and maintained on a 12-hour light/12-hour dark cycle. All rats used in this bioassay procedure were uninfected with tapeworm. For intestinal infusion, rats (n=2) were lightly sedated, and an indwelling cannula was implanted into the duodenal lumen in each of two rats. […] In brief, the animal preparation involved the following: a cannula was surgically implanted into the duodenal region of each test rat. The cannula extended from the lumen of the duodenum, across the peritoneum, under the skin to the abdominal wall, and finally to an exit from the skin at the nape of the neck. […] During the surgery, both cannulas were filled with sterile saline and plugged with metal pins. Rats were allowed at least five days to recover from implantation surgery before any manipulation occurred. All rats were housed individually after surgery to prevent damage to the cannulas. […]

rat small intestine [5] = experiment: Effect of cGMP combined with succinate on SSP frequency (Example 3); assay type: in vivo; details: for SSP stimulation (in words): FIG. 5
Method: In order to measure intestinal motility, rats were prepared as per […] et al. (1994) as described in the prior Examples. Briefly, electrodes were implanted along the length of the intestine to allow observation of intestinal muscle contraction, and a cannula was implanted in the duodenum to permit the infusion of test substances. After normal intestinal motility was established in each rat, test substances were infused through the duodenal cannula, and myoelectric recordings were used to observe the occurrence of SSP.

[6] = 100 mM, 0.2 ml infused into duodenum
[7] = grams of feed consumed/grams of weight gain
[8] = 1 mM, 0.2 ml infused into duodenum
[9] = 10 mM, 0.2 ml infused into duodenum
[10] = Experiment 2, grams of feed consumed/grams of weight gain

O=C(O)CCC(=O)O [Succinate, succinic acid]
SSP frequency / SSP induction compared with saline controls (in words) (rat small intestine [1]; 100 mM infused into intestinal lumen): failure | SSP/Hr (MEAN ± SE) (rat small intestine [1]; [6]): 0.33 ± 0.27 SSP/Hr | stimulation / induction of SSP above background levels (in words) (rat small intestine [1]): does not alter motility | stimulation / induction of SSP above background levels (in words) (rat small intestine [1]; listed as succinate): lack of SSP induction | Feed Conversion Ration FCR [2, 7]: 1.561 ± 0.073 | Feed Intake [2]: 2127 ± 257 | Gain [2]: 1372 ± 194

Nc1nc2nc[nH]c2c(=O)[nH]1 [Guanine, guanine, reference compound]
SSP/Hr (MEAN ± SE) (rat small intestine [1]; 0.1 mM, 0.2 ml infused into duodenum): 1.33 SSP/Hr | SSP/Hr (MEAN ± SE) (rat small intestine [1]; [8]): 1.33 ± 0.94 SSP/Hr | SSP/Hr (MEAN ± SE) (rat small intestine [1]; [9]): 0.33 ± 0.24 SSP/Hr | SSP frequency compared with saline controls / background (in words) (rat small intestine [1]; 10 mM): not significantly different from saline controls

Nc1nc2nc[nH]c2c(=O)[nH]1 [Guanine suspension, guanine, reference compound]
SSP/Hr (MEAN ± SE) (rat small intestine [1]; [9]): 0 SSP/Hr

O=c1[nH]cnc2c1ncn2[C@@H]1O[C@@H]2COP(=O)(O)O[C@H]2[C@H]1O [cIMP, reference compound]
stimulation / induction of SSP above background levels (in words) (rat small intestine [1]): no response

Nc1nc2c(ncn2[C@@H]2O[C@H](CO)[C@@H](O)[C@H]2O)c(=O)[nH]1 [Guanosine, guanosine, reference compound]
SSP/Hr (MEAN ± SE) (rat small intestine [1]; [9]): 0.50 ± 0.28 SSP/Hr | SSP frequency compared with saline controls / background (in words) (rat small intestine [1]; 10 mM): not significantly different from saline controls

O=c1ccn([C@@H]2O[C@@H]3COP(=O)(O)O[C@H]3[C@H]2O)c(=O)[nH]1 [cUMP, reference compound]
stimulation / induction of SSP above background levels (in words) (rat small intestine [1]): no response

Nc1nc2c(ncn2[C@@H]2O[C@H](COP(=O)(O)O)[C@@H](O)[C@H]2O)c(=O)[nH]1 [Guanosine Monophosphate, reference compound]
SSP/Hr (MEAN ± SE) (rat small intestine [1]; [9]): 0.5 ± 0.3 SSP/Hr

Nc1nc2c(nc(Br)n2[C@@H]2O[C@@H]3COP(=O)(O)O[C@H]3[C@H]2O)c(=O)[nH]1 [8-Br-cGMP, reference compound]
SSP/Hr (MEAN ± SE) (rat small intestine [1]; [9]): 0.50 ± 0.31 SSP/Hr | SSP frequency compared with saline controls / background (in words) (rat small intestine [1]; 10 mM): did not significantly increase

Nc1nc2c(ncn2C2OC3COP(=O)(O)OC3C2O)c(=O)[nH]1 (stereo not drawn) [cGMP, guanosine cyclic 3′, 5′-hydrogen phosphate]
SSP/Hr (MEAN ± SE) (rat small intestine [1]; 100 nM, 0.2 ml infused into duodenum): 0 SSP/Hr | SSP/Hr (MEAN ± SE) (rat small intestine [1]; 1 μM, 0.2 ml infused into duodenum): 0 SSP/Hr | SSP/Hr (MEAN ± SE) (rat small intestine [1]; 10 μM, 0.2 ml infused into duodenum): 0.5 ± 0.25 SSP/Hr | SSP/Hr (MEAN ± SE) (rat small intestine [1]; 100 μM, 0.2 ml infused into duodenum): 0.66 ± 0.38 SSP/Hr | SSP/Hr (MEAN ± SE) (rat small intestine [1]; [8]): 0.80 ± 0.18 SSP/Hr | SSP/Hr (MEAN ± SE) (rat small intestine [1]; 5 mM, 0.2 ml infused into duodenum): 1.60 ± 0.38 SSP/Hr | SSP/Hr (MEAN ± SE) (rat small intestine [1]; 10 mM + 1 Unit PDE (incubated 30° C. 16 hours before infusion)): 0 SSP/Hr | ability to stimulate SSP after incubation with phosphodiesterase (PDE) before infusion (in words) (rat small intestine [1]; 10 mM cGMP solution or TCM incubated in PDE before bioassay): lose their ability to stimulate SSP; also recorded: control values | SSP/Hr (MEAN ± SE) (rat small intestine [1]; [9]): 2.0 ± 0.38 SSP/Hr | SSP frequency compared with saline controls / background (in words) (rat small intestine [1]; 10 mM): significantly increased | SSP/Hr (MEAN ± SE) (rat small intestine [1]; 10 mM, boiled before infusion): 1.0 ± 0.47 SSP/Hr | SSP/Hr (MEAN ± SE) (rat small intestine [1]; [6]): 1.50 ± 0.46 SSP/Hr | SSP/Hr (MEAN ± SE) (rat small intestine [1]; 0.5 M, 0.2 ml infused into duodenum): 1.25 ± 0.41 SSP/Hr | lumenal dose range with significant increase in SSP frequency (rat small intestine [1]; FIG. 2, versus saline, Student t-test): 1 to 100 mM | stimulation / induction of SSP above background levels (in words) (rat small intestine [1]): initiated SSP myoelectric patterns | initiation of SSP pattern in the small intestine (in words) (rat small intestine [3]; 0.3 ml of 10 mM into the stomach per os): lack of intestinal response | initiation of SSP pattern in the small intestine (in words) (rat small intestine [3]; 0.3 ml of 100 mM into the stomach per os): lack of intestinal response | initiation of SSP pattern in the small intestine (in words) (rat small intestine [3]; 1.0 ml of 100 mM injected intraperitoneally): lack of intestinal response | amount of atenolol in the blood over the 20-minute period, with cGMP versus atenolol alone [4]: almost doubles | SSP stimulation (in words) (rat small intestine [5]; 2.8 nM cGMP alone): did not stimulate SSP above the background; also recorded: generally does not produce | SSP stimulation (in words) (rat small intestine [5]; 10 mM cGMP alone): produces | concentrations of cGMP alone incapable of stimulating SSP (rat small intestine [5]; cGMP infused alone): below 1 mM | cGMP concentration required to activate SSP response (rat small intestine [5]; without succinate): about 10 mM | Feed Conversion Ration FCR [2, 7]: 1.535 ± 0.094 | Feed Intake [2]: 2334 ± 144 | Gain [2]: 1548 ± 65 | FCR Week 1 [2, 10]: 1.635 ± 0.093 | FCR Week 2 [2, 10]: 1.459 ± 0.058 | FCR Week 3 [2, 10]: 1.580 ± 0.059

CC(O)C(=O)O (stereo not drawn) [Lactic Acid, reference compound]
SSP/Hr (MEAN ± SE) (rat small intestine [1]; 20 mM, 0.2 ml infused into duodenum): 0 SSP/Hr | stimulation / induction of SSP above background levels (in words) (rat small intestine [1]): lack of SSP induction

N[C@@H](C(=O)O)[C@@H](O)[C@H](O)[C@H](O)CO [D-Glucosaminic Acid, D-glucosaminic acid, reference compound]
SSP/Hr (MEAN ± SE) (rat small intestine [1]; 0.25 mM, 0.2 ml infused into duodenum): 0 SSP/Hr | stimulation / induction of SSP above background levels (in words) (rat small intestine [1]): lack of SSP induction

CC(=O)O [Acetate, reference compound]
SSP/Hr (MEAN ± SE) (rat small intestine [1]; 50 mM, 0.2 ml infused into duodenum): 0 SSP/Hr | stimulation / induction of SSP above background levels (in words) (rat small intestine [1]): lack of SSP induction
